From patent US6143715A, “Hepatitis C inhibitor peptide analogues” (priority 1998, dated 2000)
Like-named read-outs stand apart in the source and are kept apart here. Starred links: 1 amine or outer side, 2 acyl side, 3 side chain; linkers in the order of their positions; H or OH if unused. Non-standard residues stand in square brackets, D forms with d. Residues, ends and D or L forms follow the SMILES beside them. ξ: configuration not given here. *: point of attachment. NH(1S-phenylethyl) = C[C@H](N*)c1ccccc1; Hyp = O=C(O)[C@@H]1C[C@@H](O)CN1; NHPiperonyl = c1cc2c(cc1CN*)OCO2; azaNva = CCCN(N[*:1])C(=O)[*:2]; AzaAla = CN(N[*:1])C(=O)[*:2]; X7 = CCCCCN(N[*:1])C(=O)[*:2]; X2 = CCCN(N*)C(=O)OCc1ccccc1; X5 = CCCN(N*)C(=O)CCc1ccccc1; X6 = CCCC(N*)C(=O)CCc1ccccc1; Nva = CCC[C@H](N)C(=O)O; ξNva = CCCC(N)C(=O)O; ξAbu = CCC(N)C(=O)O; Bn = c1ccc(C*)cc1; CF3 = FC(F)(F)*

Assays:
[1] = target: T1, HCV NS3 protease type 1b/NS4A cofactor peptide (Hepatitis C virus genotype 1b, UniProt P26663); assay: biochemical; parameters: species or system hepatitis C virus (HCV) genotype 1b
T1 construct: recombinant HCV NS3 protease (amino acid 1027 to 1206) was cloned; made in house; host or cells: E. coli BL21(DE3)pLysS
Text: a) Cloning, expression and purification of the recombinant HCV NS3 protease type lb
Serum from an HCV-infected patient was obtained through an external collaboration (Bernard Willems MD, Hopital St-Luc, Montreal, Canada and Dr. Donald Murphy, Laboratoire de Sante Publique du Quebec, Ste-Anne de Bellevue, Canada). An engineered full-length cDNA template of the HCV genome was constructed from DNA fragments obtained by reverse transcription-PCR (RT-PCR) of serum RNA and using specific primers selected on the basis of homology between other genotype lb strains. […] A DNA fragment encoding the polyprotein precursor (NS3/NS4A/NS4B/NS5A/NS5B) was generated by PCR and introduced into eucaryotic expression vectors.
The NS3 protease expression in E. coli BL21(DE3)pLysS was induced by incubation with 1 mM IPTG for 3 h at 22° C. […] The cells were resuspended in lysis buffer (3.0 mL/g) consisting of 25 mM sodium phosphate, pH 7.5, 10% glycerol (v/v), 1 mM EDTA, 0.01% NP-40 and stored at -80° C. Cells were thawed and homogenized following the addition of 5 mM DTT. Magnesium chloride and DNase were then added to the homogenate at final concentrations of 20 mM and 20 μg/mL respectively. After a 25 min incubation at 4° C., the homogenate was sonicated and centrifuged at 15000× g for 30 min at 4° C. The pH of the supernatant was then adjusted to 6.5 using a 1M sodium phosphate solution.
Briefly, the supernatant from the bacterial extract was loaded on a SP HiTrap column (Pharmacia) previously equilibrated at a flow rate of 2 mL/min in buffer A (50 mM sodium phosphate, pH 6.5, 10% glycerol, 1 mM EDTA, 5 mM DTT, 0.01% NP-40). The column was then washed with buffer A containing 0.15 M NaCl and the protease eluted by applying 10 column volumes of a linear 0.15 to 0.3 M NaCl gradient. NS3 protease-containing fractions were pooled and diluted to a final NaCl concentration of 0.1 M. The enzyme was further purified on a HiTrap Heparin column (Pharmacia) equilibrated in buffer B (25 mM sodium phosphate, pH 7.5, 10% glycerol, 5 mM DTT, 0.01% NP-40). The sample was loaded at a flow rate of 3 mL/min. The column was then washed with buffer B containing 0.15 M NaCl at a flow rate of 1.5 mL/min. Two step washes were performed in the presence of buffer B containing 0.3 or 1M NaCl. […] Finally, the NS3 protease-containing fractions were applied on a Superdex 75 HiLoad 16/60 column (Pharmacia) equilibrated in buffer B containing 0.3 M NaCl.
The enzyme was stored at -80° C. and was thawed on ice and diluted just prior to use.
Recombinant HCV NS3 Protease/NS4A Cofactor Peptide Radiometric Assay
The enzyme was stored at -80° C., thawed on ice and diluted just prior to use in the assay buffer containing the NS4A cofactor peptide.
The substrate used for the NS3 protease/[…] cofactor peptide radiometric assay, DDIVPC-SMSYTW, is cleaved between the cysteine and the serine residues by the enzyme. The sequence DDIVPC-SMSYTW corresponds to the NS5A/NS5B natural cleavage site in which the cysteine residue in […] has been substituted for a proline. […] (molar ratio enzyme: cofactor 1:100) in the absence or presence of inhibitors. The separation of substrate from products is performed by adding avidin-coated agarose beads to the assay mixture followed by filtration.
Assay buffer: 50 mM Tris HCl, pH 7.5, 30% (w/v) glycerol, 1 mg/mL BSA, 1 mM TCEP (TCEP added just prior to use from a 1 M stock solution in water)
Substrate: […], […] final concentration (from a 2 mM stock solution in DMSO stored at -20° C. to avoid oxidation).

human leukocyte elastase = target: T2, human leukocyte elastase (Homo sapiens, UniProt P08246); assay: Specificity assay, human leukocyte elastase (pNA substrate); format: biochemical
T2 sequence (P08246 30-267): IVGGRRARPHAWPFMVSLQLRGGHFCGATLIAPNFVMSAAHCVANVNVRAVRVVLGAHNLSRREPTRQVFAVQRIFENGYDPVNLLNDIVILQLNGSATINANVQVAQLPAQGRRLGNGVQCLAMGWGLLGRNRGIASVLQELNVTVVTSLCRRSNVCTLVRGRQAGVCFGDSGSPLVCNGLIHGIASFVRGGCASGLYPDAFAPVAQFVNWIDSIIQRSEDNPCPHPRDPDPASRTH
Protocol: The specificity of the compounds was determined against a variety of serine proteases: human leukocyte elastase, porcine pancreatic elastase and bovine pancreatic α-chymotrypsin and one cysteine protease: human liver cathepsin B. In all cases a 96-well plate format protocol using a […] p-nitroanilide (pNA) substrate specific for each enzyme was used. Each assay included a 1 h enzyme-inhibitor pre-incubation at 30° C. followed by addition of substrate and hydrolysis to ≈30% conversion as measured on a UV Thermomax® microplate reader. Substrate concentrations were kept as low as possible compared to KM to reduce substrate competition. […] The final conditions for each assay were as follows:
(§1) 50 mM Tris-HCl pH 8, 0.5 M Na2 SO4, 50 mM NaCl, 0.1 mM EDTA, 3% DMSO, 0.01% Tween-20 with;
All other specificity assays were performed in a similar fashion.
(§2) The percentage of inhibition was calculated using the formula:
(§3) [1-(UVinh -UVblank)/(UVctl -UVblank))]×100

[2] = target: porcine pancreatic elastase (Sus scrofa, UniProt P00772); assay: Specificity assay, porcine pancreatic elastase (pNA substrate); format: biochemical
Protocol: The specificity of the compounds was determined against a variety of serine proteases: human leukocyte elastase, porcine pancreatic elastase and bovine pancreatic α-chymotrypsin and one cysteine protease: human liver cathepsin B. In all cases a 96-well plate format protocol using a calorimetric p-nitroanilide (pNA) substrate specific for each enzyme was used. Each assay included a 1 h enzyme-inhibitor pre-incubation at 30° C. followed by addition of substrate and hydrolysis to ≈30% conversion as measured on a UV Thermomax® microplate reader. Substrate concentrations were kept as low as possible compared to KM to reduce substrate competition. […] The final conditions for each assay were as follows:
A representative example is summarized below for porcine pancreatic elastase:
In a polystyrene flat-bottom 96-well plate were added using a Biomek liquid handler (Beckman):
40 μL of assay buffer (50 mM Tris-HCl pH 8, 50 mM NaCl, 0.1 mM EDTA);
20 μL of enzyme solution (50 mM Tris-HCl pH 8, 50 mM NaCl, 0.1 mM EDTA, 0.02% Tween-20, 40 nM porcine pancreatic elastase); and

HCV = conditions: as described in WO 97/06804; cited from earlier work
human liver cathepsin B = human liver cathepsin B (Homo sapiens, UniProt P07858); assay: biochemical
Protocol: The specificity of the compounds was determined against a variety of serine proteases: human leukocyte elastase, porcine pancreatic elastase and bovine pancreatic α-chymotrypsin and one cysteine protease: human liver cathepsin B. In all cases a 96-well plate format protocol using a calorimetric p-nitroanilide (pNA) substrate specific for each enzyme was used. Each assay included a 1 h enzyme-inhibitor pre-incubation at 30° C. followed by addition of substrate and hydrolysis to ≈30% conversion as measured on a UV Thermomax® microplate reader. Substrate concentrations were kept as low as possible compared to KM to reduce substrate competition.

[3] = target: bovine pancreatic α-chymotrypsin (Bos taurus, UniProt P00766, DEL14-15/DEL147-148); assay: Specificity assay, bovine pancreatic α-chymotrypsin (pNA substrate); format: biochemical; conditions: 1 h enzyme-inhibitor pre-incubation at 30° C., Succ-AAPF-pNA
Protocol: The final conditions for each assay were as follows:
as §1, §2, §3

NS3 protease = NS3 protease (Hepatitis C virus genotype 1b, UniProt P26663); assay: Inhibition of NS3 protease by N-terminal cleavage product; format: biochemical; conditions: N-terminal cleavage product of an analogue of a natural substrate
[4] = 1 h enzyme-inhibitor pre-incubation at 30° C., Succ-AAV-pNA
[5] = 1 h enzyme-inhibitor pre-incubation at 30° C., Succ-AAA-pNA

T1 sequence (P26663 1027-1206, other chains not shown): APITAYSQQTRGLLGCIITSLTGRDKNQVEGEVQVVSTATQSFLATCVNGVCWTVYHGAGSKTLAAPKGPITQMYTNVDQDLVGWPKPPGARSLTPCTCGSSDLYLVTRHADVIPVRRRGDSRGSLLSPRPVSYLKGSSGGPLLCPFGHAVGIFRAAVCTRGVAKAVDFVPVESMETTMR
porcine pancreatic elastase, sequence (P00772 27-266): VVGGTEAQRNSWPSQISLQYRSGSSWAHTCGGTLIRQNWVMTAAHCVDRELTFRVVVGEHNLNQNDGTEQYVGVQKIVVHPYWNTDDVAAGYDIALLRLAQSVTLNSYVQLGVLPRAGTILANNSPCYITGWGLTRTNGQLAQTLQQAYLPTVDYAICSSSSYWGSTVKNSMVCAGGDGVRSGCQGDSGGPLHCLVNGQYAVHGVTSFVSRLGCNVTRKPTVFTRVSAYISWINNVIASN
NS3 protease, sequence (P26663 1027-1206): as the sequence (P26663 1027-1206, other chains not shown) above

Row | Compound | IC50 [1] | IC50 (human leukocyte elastase; [4]) | other results
1 | CC[C@H](C)[C@H](NC(=O)[C@@H](CCC(=O)O)NC(=O)[C@H](CC(=O)O)NC(C)=O)C(=O)N[C@H](C(=O)N1C[C@H](OCc2ccccc2)C[C@H]1C(=O)NN(C)C(=O)N[C@@H](C)c1ccccc1)C(C)C [Compound 221] (Ac-D[dE]IV[Hyp](Bn)[AzaAla]-{NH(1S-phenylethyl)}) | 0.52 µM | 168 µM | –
2 | CCCN(NC(=O)[C@@H]1C[C@@H](OCc2ccccc2)CN1C(=O)[C@@H](NC(=O)[C@@H](NC(C)=O)C1CCCCC1)C(C)C)C(=O)N[C@@H](C)c1ccccc1 [Compound 215] | 45 µM | 5 µM | –
3 | CCCN(NC(=O)[C@@H]1C[C@@H](OCc2ccccc2)CN1C(=O)[C@@H](NC(=O)[C@@H](NC(=O)[C@@H](CCC(=O)O)NC(=O)[C@H](CC(=O)O)NC(C)=O)[C@@H](C)CC)C(C)C)C(=O)OCc1ccccc1 [Compound 206] (Ac-D[dE]IV[Hyp](Bn)-X2) | 0.79 µM | < 0.6 µM | IC50 [2, 5]: < 0.6 µM
4 | Nc1ccn([C@@H]2CS[C@H](CO)O2)c(=O)n1 (single isomer, unassigned) [3TC, (-) enantiomer of the nucleoside analogue cytosine-1,3-oxathiolane] | – | – | active against HCV (HCV): active against HCV
5 | CCCC(NC(=O)[C@@H]1C[C@@H](OCc2ccccc2)CN1C(=O)[C@@H](NC(=O)[C@@H](NC(=O)[C@@H](CCC(=O)O)NC(=O)[C@H](CC(=O)O)NC(C)=O)[C@@H](C)CC)C(C)C)P(=O)(Oc1ccccc1)Oc1ccccc1 (single isomer, unassigned) [Compound 301] | – | – | IC50 (human liver cathepsin B): > 300 µM; IC50 ([1]; IC50: concentration required to obtain 50% inhibition in the NS3 protease/NS4A cofactor peptide radiometric assay, enzyme:cofactor 1:100, 40 min at 23° C.): 0.029 µM; IC50 [3]: 3 µM; IC50 (human leukocyte elastase): < 0.6 µM; IC50 [2]: < 0.6 µM
6 | CCCC(C=O)NC(=O)[C@@H]1C[C@@H](OCc2ccccc2)CN1C(=O)[C@@H](NC(=O)[C@@H](NC(=O)[C@@H](CCC(=O)O)NC(=O)[C@H](CC(=O)O)NC(C)=O)[C@@H](C)CC)C(C)C (stereo partly drawn) [Compound 104] (Ac-D[dE]IV[Hyp](Bn)[ξNva]-aldehyde) | 0.14 µM | 7 µM | IC50 [3]: 8 µM; IC50 [2, 5]: 8 µM
7 | CCC[C@H](NC(=O)[C@@H]1C[C@@H](OCc2ccccc2)CN1C(=O)[C@@H](NC(=O)[C@@H](NC(=O)[C@@H](CCC(=O)O)NC(=O)[C@H](CC(=O)O)NC(C)=O)[C@@H](C)CC)C(C)C)C(=O)N[C@@H](C)c1ccccc1 [Compound 108] (Ac-D[dE]IV[Hyp](Bn)[Nva]-{NH(1S-phenylethyl)}) | 0.71 µM | 3 µM | IC50 [3]: > 300 µM; IC50 [2, 5]: > 300 µM
8 | CCC(NC(=O)[C@@H]1C[C@@H](OCc2ccccc2)CN1C(=O)[C@@H](NC(=O)[C@@H](NC(=O)[C@@H](CCC(=O)O)NC(=O)[C@H](CC(=O)O)NC(C)=O)[C@@H](C)CC)C(C)C)C(=O)C(F)(F)F (stereo partly drawn) [Compound 101] (Ac-D[dE]IV[Hyp](Bn)[ξAbu]-CF3) | 9.4 µM | < 1.2 µM | –
9 | CCCCCN(NC(=O)[C@@H]1C[C@@H](OCc2ccccc2)CN1C(=O)[C@@H](NC(=O)[C@@H](NC(=O)[C@@H](CCC(=O)O)NC(=O)[C@H](CC(=O)O)NC(C)=O)[C@@H](C)CC)C(C)C)C(=O)N[C@@H](C)c1ccccc1 [Compound 219] (Ac-D[dE]IV[Hyp](Bn)[X7]-{NH(1S-phenylethyl)}) | 0.43 µM | 151 µM | –
10 | CCCC(NC(=O)[C@@H]1C[C@@H](OCc2ccccc2)CN1C(=O)[C@@H](NC(=O)[C@@H](NC(=O)[C@@H](CCC(=O)O)NC(=O)[C@H](CC(=O)O)NC(C)=O)[C@@H](C)CC)C(C)C)C(=O)CCc1ccccc1 (stereo partly drawn) [Compound 106] (Ac-D[dE]IV[Hyp](Bn)-X6) | 5.4 µM | – | IC50 (human leukocyte elastase): 16 µM
11 | CCCC(NC(=O)[C@@H]1C[C@@H](OCc2ccccc2)CN1C(=O)[C@@H](NC(=O)[C@@H](NC(C)=O)C1CCCCC1)C(C)C)C(=O)C(=O)NCc1ccccc1 (stereo partly drawn) [Compound 109] | 23 µM | 2 µM | –
12 | CCCN(NC(=O)[C@@H]1C[C@@H](OCc2ccccc2)CN1C(=O)[C@@H](NC(=O)[C@@H](NC(=O)[C@@H](CCC(=O)O)NC(=O)[C@H](CC(=O)O)NC(C)=O)[C@@H](C)CC)C(C)C)C(=O)NCc1ccc2c(c1)OCO2 [Compound 231] (Ac-D[dE]IV[Hyp](Bn)[azaNva]-NHPiperonyl) | 0.5 µM | – | –
13 | CCCN(NC(=O)[C@@H]1C[C@@H](OCc2ccccc2)CN1C(=O)[C@@H](NC(=O)[C@@H](NC(=O)[C@@H](CCC(=O)O)NC(=O)[C@H](CC(=O)O)NC(C)=O)[C@@H](C)CC)C(C)C)C(=O)CCc1ccccc1 [Compound 202] (Ac-D[dE]IV[Hyp](Bn)-X5) | 0.63 µM | 5.5 µM | –
14 | CCCN(NC(=O)[C@@H]1C[C@@H](OCc2ccccc2)CN1C(=O)[C@@H](NC(=O)[C@@H](NC(=O)[C@@H](CCC(=O)O)NC(=O)[C@H](CC(=O)O)NC(C)=O)[C@@H](C)CC)C(C)C)C(=O)NCC(=O)OCC [Compound 201] (Ac-D[dE]IV[Hyp](Bn)[azaNva]G-OEt) | 3.9 µM | 27.4 µM | IC50 [2, 5]: 168 µM
15 | Ac-DDIVPC-OH [Ac-D-D-I-V-P-C-OH] | – | – | inhibitory to the NS3 protease (NS3 protease): inhibitory
